For twelve molecules, IC50 results are on record in patent US9446044B2, “DYRK1 inhibitors and uses thereof” (DIAXONHIT, priority 2011, dated 2016).

Read-outs that look alike come from different tables or passages of the source.

The target in assay [1] is DYRK1B (Homo sapiens (Human), UniProt Q9Y463). Nature of the assay: DYRK1B kinase assay (HotSpot, Reaction Biology). The assay is classed as biochemical.
In assay [2] the target is DYRK1A (Homo sapiens (Human), UniProt Q13627). Nature of the assay: DYRK1A kinase assay (HotSpot, Reaction Biology). Type of assay: biochemical. The following applies: purified recombinant kinase, 10 μM ATP, room temperature 120 min.
Setting [3] is: purified recombinant kinase, 10 μM ATP, room temperature 120 min.

For orientation: IC50 means the point on the concentration scale where inhibition reaches its midpoint.

Sequence of DYRK1B (Q9Y463 whole entry): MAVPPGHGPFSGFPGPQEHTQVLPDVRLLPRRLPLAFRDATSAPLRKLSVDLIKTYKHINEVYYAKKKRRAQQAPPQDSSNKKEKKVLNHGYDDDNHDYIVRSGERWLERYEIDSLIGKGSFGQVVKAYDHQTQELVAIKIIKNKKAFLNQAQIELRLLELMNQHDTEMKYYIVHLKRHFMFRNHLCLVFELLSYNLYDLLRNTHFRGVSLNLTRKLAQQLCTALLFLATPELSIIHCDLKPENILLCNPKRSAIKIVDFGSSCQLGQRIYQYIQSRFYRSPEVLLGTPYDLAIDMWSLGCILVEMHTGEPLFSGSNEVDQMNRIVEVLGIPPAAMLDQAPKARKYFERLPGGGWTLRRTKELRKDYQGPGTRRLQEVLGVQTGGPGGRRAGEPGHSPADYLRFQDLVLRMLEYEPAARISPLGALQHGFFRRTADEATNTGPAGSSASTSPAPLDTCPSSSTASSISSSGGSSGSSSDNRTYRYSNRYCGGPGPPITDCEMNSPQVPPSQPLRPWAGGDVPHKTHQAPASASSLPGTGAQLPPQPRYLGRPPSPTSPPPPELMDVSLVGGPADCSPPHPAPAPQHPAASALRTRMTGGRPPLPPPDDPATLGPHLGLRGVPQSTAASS

As for `COC(=N)c1nc2ccc3ncnc(Nc4ccc(F)cc4F)c3c2s1` [Compound 78, Methyl 9-(2,4-difluorophenylamino)thiazolo[5,4-f]quinazoline-2-carbimidate], the IC50 in assay [1] (setting [3]) turned out to be 1.07 nM; in assay [2] it was 0.94 nM.

For `COC(=N)c1nc2ccc3ncnc(Nc4ccc(O)c(F)c4)c3c2s1` [Compound 79, Methyl 9-(3-fluoro-4-hydroxyphenylamino)thiazolo[5,4-f]quinazoline-2-carbimidate], the half-maximal inhibitory concentration (IC50) in assay [1] (setting [3]) was determined as 11 nM; in assay [2], 8.63 nM.

Regarding `COC(=N)c1nc2ccc3ncnc(Nc4ccc(C(F)(F)F)cc4)c3c2s1` [Compound 80, Methyl 9-(4-(trifluoromethyl)phenylamino)thiazolo[5,4-f]quinazoline-2-carbimidate], the IC50 turned out to be 25.2 nM in assay [1] (setting [3]) and 18.3 nM in assay [2].

With `CCOC(=N)c1nc2ccc3ncnc(Nc4ccc(Br)cc4F)c3c2s1` [Compound 81, Ethyl 9-(4-bromo-2-fluorophenylamino)thiazolo[5,4-f]quinazoline-2-carbimidate], the IC50 was 34.4 nM in assay [1] (setting [3]) and 33.2 nM in assay [2].

As to `CCOC(=N)c1nc2ccc3ncnc(Nc4ccc5c(c4)OCO5)c3c2s1` [Compound 82, Ethyl 9-(benzo[d][1,3]dioxol-5-ylamino)thiazolo[5,4-j]quinazoline-2-carbimidate], the IC50 came to 7.72 nM in assay [1] (setting [3]) and 6.02 nM in assay [2].

For `N=C(OCc1ccccc1)c1nc2ccc3ncnc(Nc4ccc5c(c4)OCO5)c3c2s1` [Compound 83, benzyl 9-(benzo[d][1,3]dioxol-5-ylamino)thiazolo[5,4-f]quinazoline-2-carbimidate], the results for the 50% inhibitory concentration (IC50) in assay [1] (setting [3]) and in assay [2] were 37.3 nM and 33.9 nM, respectively.

`CC(C)OC(=N)c1nc2ccc3ncnc(Nc4ccc5c(c4)OCO5)c3c2s1` [Compound 85, isopropyl 9-(benzo[d][1,3]dioxol-5-ylamino)thiazolo[5,4-f]quinazoline-2-carbimidate]: the IC50 in assay [1] worked out at 218 nM; in assay [2], 125 nM.

For `NC(=O)c1nc2ccc3ncnc(Nc4ccc(F)cc4Br)c3c2s1` [Compound 86, 9-((2-bromo-4-fluorophenyl)amino)thiazolo[5,4-f]quinazoline-2-carboxamide], the concentration for half-maximal inhibition (IC50) worked out at 31.5 nM in assay [1] (setting [3]) and 26.2 nM in assay [2].

As to `NC(=O)c1nc2ccc3ncnc(Nc4ccc(Cl)cc4Cl)c3c2s1` [Compound 87, 9-((2,4-dichlorophenyl)amino)thiazolo[5,4-f]quinazoline-2-carboxamide], the IC50 in assay [1] (setting [3]) worked out at 43.4 nM; in assay [2], 34.9 nM.

Consider `CCCCOC(=N)c1nc2ccc3ncnc(Nc4ccc(Cl)cc4Cl)c3c2s1` [Compound 88, butyl 9-((2,4-dichlorophenyl)amino)thiazolo[5,4-f]quinazoline-2-carbimidate], for which the IC50 in assay [1] (setting [3]) came to 69.4 nM; in assay [2], 47.5 nM.

Regarding `COC(=O)c1nc2ccc3ncnc(Nc4ccc(Cl)cc4Cl)c3c2s1` [Compound 89, methyl 9-((2,4-dichlorophenyl)amino)thiazolo[5,4-f]quinazoline-2-carboxylate], the IC50 came to 7.7 nM in assay [1] (setting [3]) and 5.1 nM in assay [2].

As for `CC(C)(C)CNc1ncnc2ccc(-c3ccc4c(c3)OCO4)cc12` [NCGC-00189310, reference compound], the half-inhibitory concentration (IC50) in assay [1] (setting [3]) was found to be 20.6 nM; in assay [2], 2.2 nM.
